# From ChEMBL document CHEMBL1201862, “PubChem BioAssay data set” (2004)
# Active and inactive are the calls of the source.
# Key:
# [1] = cells; assay type: functional
# [2] = system: HeLa; test: HeLa cell cytotoxicity, dose response, cytotoxicity control for MITF activator project, CellTiter-Glo luminescence, cherry-pick samples (AID 540259); assay type: functional, cell-based; settings: Homo sapiens
# [3] = HEp-2 cell cytotoxicity, dose response, cytotoxicity control for RSV inhibitor project, HTS (AID 2410); assay type: functional; settings: human respiratory syncytial virus
# [4] = cells
# [5] = target: Peroxisome proliferator-activated receptor gamma/Nuclear receptor coactivator 1 (Homo sapiens, UniProt P37231); test: (§1) TR-FRET dose response biochemical High Throughput Screening assay for agonists of the steroid receptor coactivator 1 (SRC-1) recruitment by the peroxisome proliferator-activated receptor gamma (PPAR gamma): non-selective agonists. [Related pubchem assays (depositor defined):AID1300, AID1808, AID504735, AID631]; assay type: protein assay
# Chain of Peroxisome proliferator-activated receptor gamma/Nuclear receptor coactivator 1 (P37231 whole entry): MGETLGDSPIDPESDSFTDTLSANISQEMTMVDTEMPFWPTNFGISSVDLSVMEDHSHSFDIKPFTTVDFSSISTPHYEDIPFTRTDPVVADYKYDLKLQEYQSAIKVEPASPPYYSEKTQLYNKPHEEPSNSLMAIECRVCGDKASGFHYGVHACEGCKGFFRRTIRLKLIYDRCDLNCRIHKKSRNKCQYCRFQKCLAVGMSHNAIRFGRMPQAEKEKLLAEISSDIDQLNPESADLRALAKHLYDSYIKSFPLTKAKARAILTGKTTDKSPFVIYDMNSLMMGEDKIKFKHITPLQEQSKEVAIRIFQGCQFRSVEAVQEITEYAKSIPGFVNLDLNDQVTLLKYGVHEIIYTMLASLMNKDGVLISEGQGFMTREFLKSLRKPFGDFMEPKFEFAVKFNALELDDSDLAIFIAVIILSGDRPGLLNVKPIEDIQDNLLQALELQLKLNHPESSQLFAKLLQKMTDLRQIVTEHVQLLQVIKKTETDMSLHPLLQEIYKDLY
# Chain of Peroxisome proliferator-activated receptor gamma/Nuclear receptor coactivator 1 (Q15788 whole entry, further chain): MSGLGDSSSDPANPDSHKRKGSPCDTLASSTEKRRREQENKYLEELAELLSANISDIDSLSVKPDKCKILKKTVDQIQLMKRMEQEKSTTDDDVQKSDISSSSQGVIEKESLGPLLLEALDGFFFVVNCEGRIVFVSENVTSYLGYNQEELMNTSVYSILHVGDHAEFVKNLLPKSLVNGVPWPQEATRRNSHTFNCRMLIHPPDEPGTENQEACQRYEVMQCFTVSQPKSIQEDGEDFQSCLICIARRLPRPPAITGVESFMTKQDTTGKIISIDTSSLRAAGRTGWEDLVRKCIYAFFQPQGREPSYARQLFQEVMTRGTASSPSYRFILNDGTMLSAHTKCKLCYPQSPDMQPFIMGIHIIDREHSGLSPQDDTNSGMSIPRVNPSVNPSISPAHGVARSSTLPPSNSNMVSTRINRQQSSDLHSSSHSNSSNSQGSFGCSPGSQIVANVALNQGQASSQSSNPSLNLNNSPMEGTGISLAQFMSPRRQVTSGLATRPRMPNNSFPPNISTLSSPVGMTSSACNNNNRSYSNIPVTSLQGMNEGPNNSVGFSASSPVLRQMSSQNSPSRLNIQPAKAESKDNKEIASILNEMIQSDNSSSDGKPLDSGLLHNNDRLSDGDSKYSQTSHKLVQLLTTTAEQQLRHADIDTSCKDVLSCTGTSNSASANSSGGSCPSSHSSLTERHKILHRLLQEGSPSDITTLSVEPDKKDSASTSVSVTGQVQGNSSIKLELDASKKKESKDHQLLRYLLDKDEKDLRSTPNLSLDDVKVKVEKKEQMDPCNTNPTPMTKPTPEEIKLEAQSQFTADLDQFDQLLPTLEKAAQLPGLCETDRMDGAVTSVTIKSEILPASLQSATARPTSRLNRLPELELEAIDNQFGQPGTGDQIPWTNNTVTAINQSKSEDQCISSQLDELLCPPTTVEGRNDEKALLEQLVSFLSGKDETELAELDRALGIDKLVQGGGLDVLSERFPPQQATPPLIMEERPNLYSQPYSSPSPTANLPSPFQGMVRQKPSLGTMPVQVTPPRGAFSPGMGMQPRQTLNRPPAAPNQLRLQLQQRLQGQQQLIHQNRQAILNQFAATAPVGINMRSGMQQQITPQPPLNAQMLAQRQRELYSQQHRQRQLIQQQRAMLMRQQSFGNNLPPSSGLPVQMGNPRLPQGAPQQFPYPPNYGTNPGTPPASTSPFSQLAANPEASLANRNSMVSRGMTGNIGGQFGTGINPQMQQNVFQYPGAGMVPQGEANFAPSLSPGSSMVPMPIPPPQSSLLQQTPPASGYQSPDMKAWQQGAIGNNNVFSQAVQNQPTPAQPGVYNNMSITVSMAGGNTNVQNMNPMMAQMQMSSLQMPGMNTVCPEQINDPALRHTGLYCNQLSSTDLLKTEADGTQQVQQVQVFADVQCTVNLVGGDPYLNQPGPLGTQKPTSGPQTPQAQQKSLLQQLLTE
# [6] = target: Peroxisome proliferator-activated receptor gamma/Nuclear receptor coactivator 3 (Homo sapiens, UniProt P37231); test: as §1, with “3 (SRC-3)” for “1 (SRC-1)”, “assays: 1301 (Confirmation screen.), 1048 (Primary screen.)]” for “assays (depositor defined):AID1300, AID1808, AID504735, AID631]”; assay type: functional
# [7] = target: Peroxisome proliferator-activated receptor gamma/Nuclear receptor coactivator 2 (Homo sapiens, UniProt P37231); test: TR-FRET dose response biochemical High Throughput Screening assay for agonists of the steroid receptor coactivator 2 (SRC-2) recruitment by the peroxisome proliferator-activated receptor gamma (PPAR gamma): non-selective agonists. [Related pubchem assays: 1297, 1032 ]; assay type: functional
# Chain of Peroxisome proliferator-activated receptor gamma/Nuclear receptor coactivator 2 (P37231 whole entry): as the sequence (P37231 whole entry) above
# Chain of Peroxisome proliferator-activated receptor gamma/Nuclear receptor coactivator 2 (Q15596 whole entry, further chain): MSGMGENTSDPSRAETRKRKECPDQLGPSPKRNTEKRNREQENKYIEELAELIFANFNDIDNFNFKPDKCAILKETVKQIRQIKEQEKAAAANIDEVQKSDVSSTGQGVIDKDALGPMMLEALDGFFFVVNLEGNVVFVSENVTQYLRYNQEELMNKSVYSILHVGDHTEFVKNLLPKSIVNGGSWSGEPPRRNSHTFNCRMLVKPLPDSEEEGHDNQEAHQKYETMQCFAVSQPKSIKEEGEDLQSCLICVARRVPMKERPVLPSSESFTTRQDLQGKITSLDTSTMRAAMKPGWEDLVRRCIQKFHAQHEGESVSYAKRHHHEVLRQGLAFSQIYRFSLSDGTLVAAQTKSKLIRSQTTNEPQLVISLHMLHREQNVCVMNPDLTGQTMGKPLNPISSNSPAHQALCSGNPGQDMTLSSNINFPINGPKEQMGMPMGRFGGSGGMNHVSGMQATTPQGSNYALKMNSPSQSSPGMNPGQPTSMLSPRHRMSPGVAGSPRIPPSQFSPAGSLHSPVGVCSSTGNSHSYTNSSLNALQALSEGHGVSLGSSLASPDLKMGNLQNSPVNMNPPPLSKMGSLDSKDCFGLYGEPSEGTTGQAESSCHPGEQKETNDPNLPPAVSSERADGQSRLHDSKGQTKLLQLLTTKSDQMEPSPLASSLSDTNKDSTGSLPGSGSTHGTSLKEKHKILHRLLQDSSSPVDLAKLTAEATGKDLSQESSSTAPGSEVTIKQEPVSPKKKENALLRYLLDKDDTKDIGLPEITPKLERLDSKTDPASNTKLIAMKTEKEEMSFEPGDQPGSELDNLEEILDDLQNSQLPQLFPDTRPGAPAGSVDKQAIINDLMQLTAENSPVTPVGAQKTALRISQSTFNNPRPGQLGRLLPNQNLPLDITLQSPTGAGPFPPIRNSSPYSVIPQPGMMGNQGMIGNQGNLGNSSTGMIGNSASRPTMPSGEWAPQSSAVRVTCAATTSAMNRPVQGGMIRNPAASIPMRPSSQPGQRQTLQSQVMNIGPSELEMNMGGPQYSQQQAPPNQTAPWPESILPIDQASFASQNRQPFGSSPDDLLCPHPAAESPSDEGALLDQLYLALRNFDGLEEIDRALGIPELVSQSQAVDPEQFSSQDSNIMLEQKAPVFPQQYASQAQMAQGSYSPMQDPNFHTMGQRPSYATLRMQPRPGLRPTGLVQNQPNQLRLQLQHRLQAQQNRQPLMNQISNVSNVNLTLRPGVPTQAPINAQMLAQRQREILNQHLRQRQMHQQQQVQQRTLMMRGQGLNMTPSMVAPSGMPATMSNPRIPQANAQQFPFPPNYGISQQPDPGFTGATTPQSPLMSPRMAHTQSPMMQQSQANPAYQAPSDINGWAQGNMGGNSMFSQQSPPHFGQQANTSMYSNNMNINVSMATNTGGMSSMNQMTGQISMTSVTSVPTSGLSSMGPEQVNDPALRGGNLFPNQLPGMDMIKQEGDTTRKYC
# [8] = target: T1, Heat shock factor protein 1 (Mus musculus, UniProt P38532); test: inhibition of MG132-induced HSE-luciferase signal, confirmation, cell-based, NIH3T3, luminescence, dose retest (AID 2382); assay type: functional;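 note: NIH3T3 fibroblasts with HSF1-driven luciferase reporter stressed by proteasome inhibitor MG132; luminescence from HSF1-driven luciferase expression after 8 hours of MG132 stress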
# T1 sequence (P38532 whole entry): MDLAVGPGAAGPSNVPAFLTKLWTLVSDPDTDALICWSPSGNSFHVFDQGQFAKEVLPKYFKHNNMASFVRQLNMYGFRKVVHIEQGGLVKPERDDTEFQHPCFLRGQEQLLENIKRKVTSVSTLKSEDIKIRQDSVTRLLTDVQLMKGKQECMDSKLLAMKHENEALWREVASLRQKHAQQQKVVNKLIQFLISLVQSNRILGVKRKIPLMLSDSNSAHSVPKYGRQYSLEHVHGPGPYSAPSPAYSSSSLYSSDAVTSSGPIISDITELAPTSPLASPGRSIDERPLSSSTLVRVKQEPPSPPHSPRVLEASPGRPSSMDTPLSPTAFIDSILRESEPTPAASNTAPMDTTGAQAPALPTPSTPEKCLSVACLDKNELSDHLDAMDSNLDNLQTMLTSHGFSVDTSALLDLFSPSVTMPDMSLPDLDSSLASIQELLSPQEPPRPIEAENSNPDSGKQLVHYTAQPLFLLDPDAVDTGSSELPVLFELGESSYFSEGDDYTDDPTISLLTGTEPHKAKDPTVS
# [9] = target: Glucose-6-phosphate 1-dehydrogenase (Homo sapiens, UniProt P11413); test: human G6PD enzyme inhibitors, dose response, selectivity assay for P. falciparum G6PD inhibitor project, biochemical, fluorescence (AID 504792); assay type: functional
# Chain of Glucose-6-phosphate 1-dehydrogenase (P11413 whole entry): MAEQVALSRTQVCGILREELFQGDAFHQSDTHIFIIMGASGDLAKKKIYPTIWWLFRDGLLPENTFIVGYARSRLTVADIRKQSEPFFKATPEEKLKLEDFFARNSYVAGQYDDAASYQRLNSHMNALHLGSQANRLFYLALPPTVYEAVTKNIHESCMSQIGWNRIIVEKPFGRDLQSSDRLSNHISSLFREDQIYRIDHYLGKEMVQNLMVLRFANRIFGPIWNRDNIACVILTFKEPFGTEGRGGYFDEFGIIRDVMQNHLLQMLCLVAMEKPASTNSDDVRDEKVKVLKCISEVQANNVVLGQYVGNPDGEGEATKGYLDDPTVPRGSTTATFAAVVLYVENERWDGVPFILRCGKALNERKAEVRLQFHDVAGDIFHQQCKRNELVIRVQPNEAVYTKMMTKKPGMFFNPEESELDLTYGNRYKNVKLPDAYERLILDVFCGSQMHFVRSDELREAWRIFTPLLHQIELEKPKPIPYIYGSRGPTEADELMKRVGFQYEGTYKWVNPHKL
# [10] = target: T2, Histone-lysine N-methyltransferase NSD2 (Homo sapiens, UniProt O96028); assay type: biochemical
# T2 sequence (O96028 whole entry): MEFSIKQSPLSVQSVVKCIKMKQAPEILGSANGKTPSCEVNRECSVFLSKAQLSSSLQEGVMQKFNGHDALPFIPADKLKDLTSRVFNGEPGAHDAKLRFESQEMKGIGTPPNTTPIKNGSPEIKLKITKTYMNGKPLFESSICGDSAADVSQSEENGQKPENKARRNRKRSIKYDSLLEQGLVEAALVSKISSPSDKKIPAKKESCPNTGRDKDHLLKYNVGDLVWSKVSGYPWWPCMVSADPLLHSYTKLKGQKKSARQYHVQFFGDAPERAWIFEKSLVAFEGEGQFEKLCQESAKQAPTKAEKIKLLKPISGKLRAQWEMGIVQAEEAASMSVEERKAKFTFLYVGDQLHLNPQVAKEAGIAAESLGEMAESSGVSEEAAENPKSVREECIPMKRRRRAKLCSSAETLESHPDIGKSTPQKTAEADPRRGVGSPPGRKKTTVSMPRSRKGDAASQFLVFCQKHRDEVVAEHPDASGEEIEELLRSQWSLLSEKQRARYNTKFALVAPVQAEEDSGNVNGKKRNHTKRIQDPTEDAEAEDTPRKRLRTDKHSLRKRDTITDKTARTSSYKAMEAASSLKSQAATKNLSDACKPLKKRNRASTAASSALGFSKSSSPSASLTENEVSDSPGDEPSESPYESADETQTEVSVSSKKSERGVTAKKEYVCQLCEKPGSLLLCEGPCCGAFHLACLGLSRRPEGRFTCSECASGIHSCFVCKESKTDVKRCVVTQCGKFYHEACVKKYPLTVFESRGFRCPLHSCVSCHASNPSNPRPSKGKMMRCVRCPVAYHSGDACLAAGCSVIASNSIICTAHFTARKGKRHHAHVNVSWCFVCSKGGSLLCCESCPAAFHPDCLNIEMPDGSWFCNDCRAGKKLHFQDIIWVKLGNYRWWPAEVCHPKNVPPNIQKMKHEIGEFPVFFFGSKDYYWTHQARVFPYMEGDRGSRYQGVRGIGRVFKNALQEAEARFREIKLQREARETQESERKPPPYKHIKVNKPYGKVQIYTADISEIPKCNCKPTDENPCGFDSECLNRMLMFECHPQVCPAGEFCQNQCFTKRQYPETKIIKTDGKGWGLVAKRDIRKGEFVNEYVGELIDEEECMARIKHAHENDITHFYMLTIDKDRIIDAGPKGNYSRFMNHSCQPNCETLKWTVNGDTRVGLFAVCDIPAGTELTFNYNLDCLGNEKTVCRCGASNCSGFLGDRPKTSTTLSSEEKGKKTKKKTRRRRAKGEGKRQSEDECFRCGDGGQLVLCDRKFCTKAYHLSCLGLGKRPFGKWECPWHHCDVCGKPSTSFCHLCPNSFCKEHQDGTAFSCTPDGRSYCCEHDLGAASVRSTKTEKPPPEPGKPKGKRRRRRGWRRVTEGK
# [11] = target: T3, Rac GTPase-activating protein 1 (Homo sapiens, UniProt Q9H0H5); test: MgcRacGAP GTPase-activating activity inhibitors, confirmation, biochemical, ADP Hunter fluorescence, primary and confirmatory (AID 624330); assay type: functional
# T3 sequence (Q9H0H5 whole entry): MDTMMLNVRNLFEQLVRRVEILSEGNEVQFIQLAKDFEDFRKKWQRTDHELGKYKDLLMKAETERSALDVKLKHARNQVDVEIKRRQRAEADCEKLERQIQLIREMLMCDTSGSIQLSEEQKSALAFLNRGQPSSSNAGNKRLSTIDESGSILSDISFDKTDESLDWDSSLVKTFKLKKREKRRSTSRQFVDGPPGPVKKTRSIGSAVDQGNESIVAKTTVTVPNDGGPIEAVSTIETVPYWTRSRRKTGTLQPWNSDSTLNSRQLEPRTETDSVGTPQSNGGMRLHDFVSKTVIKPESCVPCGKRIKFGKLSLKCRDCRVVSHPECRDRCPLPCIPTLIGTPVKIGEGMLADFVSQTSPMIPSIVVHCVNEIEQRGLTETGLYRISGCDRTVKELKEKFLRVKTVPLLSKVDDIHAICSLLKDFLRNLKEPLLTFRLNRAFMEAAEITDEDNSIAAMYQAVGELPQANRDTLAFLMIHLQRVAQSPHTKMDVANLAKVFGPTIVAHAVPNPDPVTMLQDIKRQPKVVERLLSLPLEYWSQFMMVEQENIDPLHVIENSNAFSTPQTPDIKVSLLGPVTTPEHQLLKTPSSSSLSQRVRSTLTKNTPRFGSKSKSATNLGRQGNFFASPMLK
# [12] = target: Estrogen receptor beta (Homo sapiens, UniProt Q92731);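 note: recombinant ER-beta bound to coactivator SRC1 peptide in presence of estradiol agonist; inhibitors block coactivator peptide binding and lower the FRET signal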
# Chain of Estrogen receptor beta (Q92731 whole entry): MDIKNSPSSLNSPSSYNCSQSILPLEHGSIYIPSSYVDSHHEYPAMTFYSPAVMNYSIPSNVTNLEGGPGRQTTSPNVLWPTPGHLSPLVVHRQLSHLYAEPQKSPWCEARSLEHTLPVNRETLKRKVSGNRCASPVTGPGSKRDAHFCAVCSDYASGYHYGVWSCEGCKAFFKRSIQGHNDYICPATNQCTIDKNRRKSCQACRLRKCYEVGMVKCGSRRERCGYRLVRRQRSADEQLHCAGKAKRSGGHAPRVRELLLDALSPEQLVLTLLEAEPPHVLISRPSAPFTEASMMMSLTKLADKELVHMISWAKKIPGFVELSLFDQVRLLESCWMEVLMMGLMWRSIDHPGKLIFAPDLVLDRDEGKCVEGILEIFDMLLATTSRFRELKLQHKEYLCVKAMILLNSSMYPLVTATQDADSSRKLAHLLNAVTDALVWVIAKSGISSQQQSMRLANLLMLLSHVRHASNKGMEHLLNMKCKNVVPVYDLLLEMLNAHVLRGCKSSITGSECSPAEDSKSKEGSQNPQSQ
# [13] = target: T4, Estrogen receptor (Homo sapiens, UniProt P03372);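 note: potency for inhibiting coactivator peptide recruitment to the receptor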
# T4 sequence (P03372 whole entry): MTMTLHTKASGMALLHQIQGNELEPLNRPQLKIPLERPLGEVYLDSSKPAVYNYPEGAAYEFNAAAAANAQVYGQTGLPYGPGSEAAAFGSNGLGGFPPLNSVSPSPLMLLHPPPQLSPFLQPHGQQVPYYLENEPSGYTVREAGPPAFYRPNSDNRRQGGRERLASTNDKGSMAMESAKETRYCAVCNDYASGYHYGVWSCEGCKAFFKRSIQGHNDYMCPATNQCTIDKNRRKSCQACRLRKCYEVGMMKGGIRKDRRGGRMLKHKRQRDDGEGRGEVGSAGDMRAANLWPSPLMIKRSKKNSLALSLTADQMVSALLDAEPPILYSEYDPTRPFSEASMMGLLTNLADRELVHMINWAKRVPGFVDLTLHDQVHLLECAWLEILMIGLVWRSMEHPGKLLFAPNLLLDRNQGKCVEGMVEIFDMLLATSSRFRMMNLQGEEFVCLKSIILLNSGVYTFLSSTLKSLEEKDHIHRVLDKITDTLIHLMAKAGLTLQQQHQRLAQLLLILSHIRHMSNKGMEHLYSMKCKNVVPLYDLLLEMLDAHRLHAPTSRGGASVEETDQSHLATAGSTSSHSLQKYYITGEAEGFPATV
# [14] = system: H9c2; test: cells; assay type: functional, cell-based; settings: Rattus norvegicus, H9c2, Myocardium;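 note: confirmatory concentration-response retest of ultra-high-throughput screening hits for modulation of myocardial damage; cell death induced by hydrogen peroxide oxidative stress; compound pretreatment for 60 min then peroxide exposure for 2 h; potency is for protecting the cells against peroxide damage rather than for killing them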
# [15] = target: Large T antigen (Simian virus 40, UniProt P03070); assay type: functional, Betapolyomavirus macacae;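 note: Confirmatory-stage PubChem screen for compounds that inhibit SV40 T antigen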
# [16] = target: T5, Cytochrome P450 1A2 (Homo sapiens, UniProt P05177);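 note: PubChem cytochrome P450 panel assay, CYP1A2 panel member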
# T5 sequence (P05177 whole entry): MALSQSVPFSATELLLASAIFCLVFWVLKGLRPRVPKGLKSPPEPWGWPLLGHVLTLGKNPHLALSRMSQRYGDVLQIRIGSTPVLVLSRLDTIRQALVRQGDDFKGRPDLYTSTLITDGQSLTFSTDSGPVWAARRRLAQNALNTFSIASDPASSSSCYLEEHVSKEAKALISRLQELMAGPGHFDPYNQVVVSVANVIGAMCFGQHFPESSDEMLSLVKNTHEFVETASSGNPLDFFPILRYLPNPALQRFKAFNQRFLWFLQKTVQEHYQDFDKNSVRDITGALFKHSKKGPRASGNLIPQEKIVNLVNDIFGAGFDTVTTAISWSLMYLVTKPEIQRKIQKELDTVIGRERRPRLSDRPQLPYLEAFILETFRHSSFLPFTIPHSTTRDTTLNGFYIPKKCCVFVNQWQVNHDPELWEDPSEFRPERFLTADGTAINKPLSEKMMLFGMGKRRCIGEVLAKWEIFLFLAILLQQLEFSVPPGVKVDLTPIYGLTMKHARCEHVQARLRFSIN
# [17] = target: Cytochrome P450 3A4 (Homo sapiens, UniProt P08684);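 note: CYP3A4 tested as one member of a cytochrome P450 panel screen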
# [18] = target: Cytochrome P450 2C9 (Homo sapiens, UniProt P11712)
smiles,measurement,setting,value
Cc1ccc(NCCC(=O)c2cccs2)cc1C,IC50,[1],20.7 µM (active)
same,AC50,[2],> 350 µM (inactive)
Cc1[nH]c(C)c(S(=O)(=O)N2CCN(c3cccc(Cl)c3)CC2)c1C(=O)N1CCCCC1,CC50,[3],29.3 µM (active)
same,IC50,[4],31.5 µM (active)
COc1ccccc1Nc1nc(-c2cccc([N+](=O)[O-])c2)cs1,CC50,[3],25.1 µM (active)
same,IC50,[4],12.3 µM (active)
CCn1c(=O)cc(SCC(=O)NCCN2CCN(Cc3ccccc3)CC2)c2ccccc21,EC50,[5],> 79.4 µM (inactive)
same,EC50,[6],> 79.4 µM (not active)
same,EC50,[7],> 79.4 µM (not active)
O=C1c2ccccc2/C(=C\C#Cc2ccccn2)N1c1ccccc1,AC50,[2],42.6 µM (active)
CCOc1ccc(NC(=O)CSc2ncnc3c2sc2ccccc23)cc1,EC50,[5],> 79.4 µM (inactive)
same,EC50,[6],81.4 µM (not active)
same,EC50,[7],32 µM (not active)
COc1cccc(-c2c(C(=O)N/N=C/c3ccc(C)s3)nnn2-c2nonc2N)c1,EC50,[8],> 195 µM (not active)
same,IC50,[9],> 80 µM (inactive)
CSc1cnn(Cc2ccccc2)c(=O)c1SCc1ccccc1,EC50,[5],3.27 µM (active)
same,EC50,[6],> 79.4 µM (not active)
same,EC50,[7],7.94 µM (active)
CC(=O)c1ccc2oc3ccccc3c(=O)c2c1,AC50,[2],41 µM (active)
CCN(CC)CCCN(Cc1cc2cc(OC)c(OC)cc2nc1O)C(=O)Nc1ccccc1,AC50,[10],> 20 µM (inactive)
CN(C)c1ccc2cc(S(=O)(=O)O)cc(O)c2c1,IC50,[11],42.9 µM (active)
same,AC50,[10],0.747 µM (active)
COc1c(C)cccc1C(=O)NC(=S)Nc1cccc2nsnc12,EC50,[5],3.68 µM (active)
same,EC50,[6],39.5 µM (not active)
same,EC50,[7],4.14 µM (active)
CN1CC2(C)CN(C(c3ccccc3)c3ccccc3)CC(C)(C1)C2O (stereo not drawn),IC50,[12],> 50 µM (not active)
CN(C(=O)c1cc(-c2ccccc2)on1)C1CCCCC1,AC50,[2],> 350 µM (inactive)
Cc1[nH]c2ccc(-c3nnc(SCC(=O)c4ccccc4F)o3)cc2c1C,CC50,[3],32.8 µM (active)
same,IC50,[13],26 µM (active)
same,IC50,[4],40.7 µM (active)
CN1CCN(C(=S)c2ccc([N+](=O)[O-])cc2)CC1,IC50,[9],> 80 µM (inactive)
CC(C)c1ccc(S(=O)(=O)N2CCN(CC(=O)c3ccc(O)c(O)c3)CC2)cc1,IC50,[14],> 79 µM (inactive)
same,IC50,[15],23.6 µM (active)
same,AC50,[10],4.68 µM (active)
CC(=N)/C(C#N)=C(/O)COc1ncnc2ccc(Br)cc12,IC50,[4],1.14 µM (active)
same,AC50,[16],31.6 nM (inconclusive)
same,AC50,[17],17.8 µM (inconclusive)
same,AC50,[18],11.2 µM (inconclusive)
